The values below come from PubChem BioAssay (NCI).

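1) Cells in 96-well plates. 2) Compound, 48 h, 5 concentrations. 3) Linear interpolation between surrounding doses. 4) Unreached endpoint = highest concentration. Abbreviation: GI50, concentration required for 50% inhibition of growth. TGI is the concentration that stops growth completely.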

Test systems include CCRF-CEM leukemia; SF-295 CNS; OVCAR-8 ovarian; HOP-92 NSCLC; IGROV1 ovarian; SK-MEL-2 melanoma; NCI-H226 lung; U251 CNS; SR leukemia; UACC-257 melanoma.
What all share (assay): NCI-60 cell line screen, 48 h

`CC(C)CNc1nc(-c2ccccc2)nc2ccccc12`: the GI50 in the experiment with CCRF-CEM leukemia was 15.3 µM; in the experiment with SF-295 CNS, 14.5 µM; with OVCAR-8 ovarian, 15 µM; with HOP-92 NSCLC, 12.3 µM; with IGROV1 ovarian it was 27.4 µM; with SK-MEL-2 melanoma, 29.6 µM. Besides, the results for the GI50 with NCI-H226 lung, in the experiment with U251 CNS and in the experiment with SR leukemia were 16.9 µM, 12.2 µM and 10.1 µM, respectively. The TGI with CCRF-CEM leukemia was 36.6 µM; in the experiment with SF-295 CNS, 28.9 µM; with OVCAR-8 ovarian, 31.8 µM; with HOP-92 NSCLC, 28.6 µM; with IGROV1 ovarian, greater than 100 µM; in the experiment on SK-MEL-2 melanoma it was greater than 100 µM. The TGI amounted to 35 µM in the experiment on NCI-H226 lung, 24.8 µM in the experiment with U251 CNS and 30.9 µM in the experiment on SR leukemia.

For `COc1ccc(-c2ccc(/C=N/n3c(COc4ccc(Cl)cc4Cl)nn(CN4CCN(C)CC4)c3=S)o2)c([N+](=O)[O-])c1`, the GI50 with CCRF-CEM leukemia was 14.3 µM; in the experiment with SF-295 CNS it was 16.8 µM; in the experiment with UACC-257 melanoma, 23.5 µM; in the experiment on OVCAR-8 ovarian, 18.9 µM; in the experiment with IGROV1 ovarian it was 45 µM; in the experiment with NCI-H226 lung it was 12.5 µM. Further, the GI50 with U251 CNS was 16.9 µM; with SR leukemia, 31.1 µM. Further, the TGI is 47 µM with CCRF-CEM leukemia; 37.5 µM in the experiment on SF-295 CNS; 59.6 µM in the experiment on UACC-257 melanoma; 53.5 µM in the experiment with OVCAR-8 ovarian; greater than 100 µM in the experiment with IGROV1 ovarian; 31 µM in the experiment with NCI-H226 lung. For the same molecule, the figures for the TGI with U251 CNS and in the experiment on SR leukemia were 42.8 µM and 96.1 µM, respectively.

Take `Cc1cc(N2CCN(c3ccnc4cc(Cl)ccc34)CC2)nc(NC2CCCCC2)n1`: the GI50 in the experiment on CCRF-CEM leukemia is 2.71 µM; with SF-295 CNS it was 1.72 µM; in the experiment with UACC-257 melanoma, 1.86 µM; with OVCAR-8 ovarian, 2.39 µM; in the experiment with HOP-92 NSCLC, 1.08 µM; in the experiment on IGROV1 ovarian, 2.35 µM. Further, the GI50 in the experiment on NCI-H226 lung is 3.23 µM; with U251 CNS, 1.72 µM; with SR leukemia, 1.93 µM. Moreover, the TGI with CCRF-CEM leukemia was determined as 10.1 µM; with SF-295 CNS it was 3.49 µM; in the experiment with UACC-257 melanoma, 3.92 µM; in the experiment on OVCAR-8 ovarian, 6.35 µM; in the experiment on HOP-92 NSCLC, 3.04 µM; with IGROV1 ovarian, 5.35 µM. Moreover, the TGI with NCI-H226 lung was determined as 15 µM; in the experiment with U251 CNS, 3.37 µM; in the experiment on SR leukemia it was 4.73 µM.

For `Cc1ccc(-c2nc(N)nc3c2nnn3Cc2cccc(CO[C@H]3CCOC3)n2)o1`, the GI50 in the experiment with CCRF-CEM leukemia, with SF-295 CNS, with UACC-257 melanoma, with OVCAR-8 ovarian, in the experiment on HOP-92 NSCLC and with IGROV1 ovarian was greater than 100 µM in each case. Moreover, the GI50 in the experiment with SK-MEL-2 melanoma, with NCI-H226 lung and in the experiment on U251 CNS was greater than 100 µM in each case. In addition, the TGI in the experiment with CCRF-CEM leukemia, in the experiment with SF-295 CNS, in the experiment with UACC-257 melanoma, with OVCAR-8 ovarian, with HOP-92 NSCLC and in the experiment on IGROV1 ovarian was greater than 100 µM throughout. The TGI in the experiment on SK-MEL-2 melanoma, with NCI-H226 lung and with U251 CNS was greater than 100 µM each time.

In the case of `CC[Si](CC)(CC)OC[C@]1([C@@H]2COC(C)(C)O2)CC=CC(=O)O1`, the GI50 was 6.46 µM in the experiment on CCRF-CEM leukemia; 35.2 µM in the experiment on SF-295 CNS; 32.2 µM in the experiment with UACC-257 melanoma; 26.4 µM in the experiment with OVCAR-8 ovarian; 19.7 µM with HOP-92 NSCLC; 41.1 µM in the experiment on SK-MEL-2 melanoma. Besides, the results for the GI50 in the experiment on U251 CNS and in the experiment with SR leukemia were 42.2 µM and 23 µM, respectively. In addition, the TGI is greater than 100 µM in the experiment with CCRF-CEM leukemia; greater than 100 µM in the experiment on SF-295 CNS; greater than 100 µM with UACC-257 melanoma; 91.8 µM in the experiment with OVCAR-8 ovarian; greater than 100 µM in the experiment on HOP-92 NSCLC; greater than 100 µM in the experiment with SK-MEL-2 melanoma. Besides, the TGI is greater than 100 µM in the experiment with U251 CNS and 95.1 µM in the experiment with SR leukemia.

`O=C(N/N=C/c1ccccc1Cl)c1ccccc1Nc1ccnc(C(F)(F)F)c1`: the GI50 in the experiment on CCRF-CEM leukemia was 0.32 µM; with SF-295 CNS, 0.354 µM; in the experiment on UACC-257 melanoma, 2.61 µM; with OVCAR-8 ovarian, 2.29 µM; with HOP-92 NSCLC, 1.69 µM; in the experiment on IGROV1 ovarian it was 1.87 µM. Also, the GI50 in the experiment with SK-MEL-2 melanoma was 1.79 µM; in the experiment with NCI-H226 lung, 0.811 µM; in the experiment on U251 CNS, 1.15 µM. The TGI with CCRF-CEM leukemia came to 1.76 µM; in the experiment on SF-295 CNS, 1.33 µM; in the experiment on UACC-257 melanoma, 5.58 µM; with OVCAR-8 ovarian, 8.08 µM; in the experiment with HOP-92 NSCLC it was 6.17 µM; with IGROV1 ovarian, 10.3 µM. Moreover, the values for the TGI with SK-MEL-2 melanoma, in the experiment with NCI-H226 lung and with U251 CNS were 5.02 µM, 3.52 µM and 6.18 µM, respectively.

`CN1CCCCCC(=N\O)/C(=N/O)CCCCC1`: the TGI in the experiment with CCRF-CEM leukemia, in the experiment on SF-295 CNS, with UACC-257 melanoma, in the experiment with OVCAR-8 ovarian, in the experiment on HOP-92 NSCLC and in the experiment with IGROV1 ovarian was greater than 100 µM throughout. Also, the TGI with NCI-H226 lung, with U251 CNS and in the experiment with SR leukemia was greater than 100 µM in each case.

As to `O=C([O][Hg][CH2]C1COCC([CH2][Hg][O]C(=O)c2ccccc2)O1)c1ccccc1` (configuration not stated), the GI50 was 0.804 µM in the experiment on CCRF-CEM leukemia; 17.3 µM in the experiment on SF-295 CNS; 1.45 µM with UACC-257 melanoma; 2.03 µM with OVCAR-8 ovarian; 2.25 µM in the experiment on HOP-92 NSCLC; 2.1 µM in the experiment on IGROV1 ovarian. For the same molecule, the values for the GI50 in the experiment with SK-MEL-2 melanoma, with NCI-H226 lung and in the experiment with U251 CNS were 13.2 µM, 20.8 µM and 0.622 µM, respectively. Moreover, the TGI in the experiment with CCRF-CEM leukemia was 5.08 µM; with SF-295 CNS, 35.7 µM; with UACC-257 melanoma, 2.85 µM; with OVCAR-8 ovarian, 4.62 µM; in the experiment with HOP-92 NSCLC, 4.23 µM; in the experiment on IGROV1 ovarian, 4.17 µM. Moreover, the TGI in the experiment on SK-MEL-2 melanoma amounted to 29.6 µM; with NCI-H226 lung, 41.9 µM; in the experiment on U251 CNS, 2.12 µM.

For `C=CCN(CC=C)C(=O)c1cc(C)nc2c1c(=O)n(-c1ccccc1)c(=O)n2CC(O)CN1CCN(c2ncccn2)CC1` (configuration not stated), the GI50 in the experiment on CCRF-CEM leukemia, with SF-295 CNS, in the experiment on HOP-92 NSCLC, with IGROV1 ovarian, with SK-MEL-2 melanoma and with NCI-H226 lung was greater than 100 µM in each case. Also, the GI50 in the experiment on U251 CNS and in the experiment with SR leukemia was greater than 100 µM throughout. The TGI in the experiment on CCRF-CEM leukemia, with SF-295 CNS, in the experiment on HOP-92 NSCLC, in the experiment with IGROV1 ovarian, in the experiment with SK-MEL-2 melanoma and with NCI-H226 lung was greater than 100 µM in each case. Moreover, the TGI in the experiment with U251 CNS and in the experiment with SR leukemia was greater than 100 µM each time.
